Biological target: T1, human B1R (Homo sapiens, UniProt P46663)
T1 construct: expressed in transfected cells; host or cells: CHO K1 cells (Chinese Hamster Ovary), stably transfected
T1 sequence (P46663 1-353): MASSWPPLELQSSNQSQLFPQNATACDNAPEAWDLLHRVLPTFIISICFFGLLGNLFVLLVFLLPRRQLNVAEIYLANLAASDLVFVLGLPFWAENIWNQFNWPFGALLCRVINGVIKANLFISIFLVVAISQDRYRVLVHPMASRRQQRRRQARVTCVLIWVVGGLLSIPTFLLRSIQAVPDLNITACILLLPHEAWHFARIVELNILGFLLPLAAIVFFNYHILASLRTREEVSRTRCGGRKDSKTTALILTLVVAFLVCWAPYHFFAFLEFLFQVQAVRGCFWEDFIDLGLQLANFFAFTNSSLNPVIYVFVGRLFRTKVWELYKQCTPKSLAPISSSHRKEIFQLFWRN
Assay: Functional assay at bradykinin receptor 1 (B1R): Ca2+ fluorescence (Fluo-4) in FLIPR/Novostar, antagonist mode
Type: cell-based
Conditions: test substance 10 µM; CHO K1 cells stably transfected with human B1R gene (hB1R-Zellen); agonist Lys-Des-Arg9-Bradykinin at EC80; % inhibition relative to maximal achievable inhibition; read-out: % Inhibierung (human B1R) bei 10 µM
How it was run: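 CHO K1 cells stably expressing human B1R were loaded with Fluo-4 and preincubated 6–20 min with test compound before Lys-Des-Arg9-bradykinin at its EC80. Peak fluorescence (ex 488/em 540 nm) gave % inhibition versus maximal inhibition; IC50 from several concentrations, n=2 or 3.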

Compound | inhibition at 10 µM [%]
COc1cc(C)c(S(=O)(=O)Cc2cn(CC(=O)NC3CCNCC3)nn2)c(C)c1 [CC-182, 2-[4-[[(4-Methoxy-2,6-dimethyl-phenyl)sulfonyl]-methyl]-1H-[1,2,3]triazol-1-yl]-N-piperidin-4-yl-acetamid] | 99
COc1cc(C)c(S(=O)(=O)Cc2cn(CC(=O)NC3CCN(C)CC3(C)C)nn2)c(C)c1 (stereo not drawn) [CC-183, 2-[4-[[(4-Methoxy-2,6-dimethyl-phenyl)sulfonyl]-methyl]-1H-[1,2,3]triazol-1-yl]-N-(1,3,3-trimethyl-piperidin-4-yl)-acetamid] | 100
COc1cc(C)c(S(=O)(=O)Cc2c(C)nn(CC(=O)NC3CCN(C)CC3(C)C)c2C)c(C)c1 (stereo not drawn) [CC-184, 2-[4-[[(4-Methoxy-2,6-dimethyl-phenyl)sulfonyl]-methyl]-3,5-dimethyl-1H-pyrazol-1-yl]-N-(1,3,3-trimethyl-piperidin-4-yl)-acetamid] | 100
COc1cc(C)c(S(=O)(=O)Cc2c(C)nn(CC(=O)N(C)C3CCNCC3(C)C)c2C)c(C)c1 (stereo not drawn) [CC-185, N-(3,3-Dimethyl-piperidin-4-yl)-2-[4-[[(4-methoxy-2,6-dimethyl-phenyl)sulfonyl]-methyl]-3,5-dimethyl-1 H-pyrazol-1-yl]-N-methyl-acetamid] | 72
COc1cc(C)c(S(=O)(=O)Cc2cn(CC(=O)N(C3CCC(N(C)C)CC3)C3CC3)nn2)c(C)c1 (stereo not drawn) [CC-186, N-Cyclopropyl-N-(4-dimethylamino-cyclohexyl)-2-[4-[[(4-methoxy-2,6-dimethyl-phenyl)sulfonyl]-methyl]-1H-[1,2,3]triazol-1-yl]-acetamid] | 100
COc1cc(C)c(S(=O)(=O)Cc2cc(C)n(CC(=O)NC3CCN(C)CC3(C)C)n2)c(C)c1 (stereo not drawn) [CC-188, 2-[3-[[(4-Methoxy-2,6-dimethyl-phenyl)sulfonyl]-methyl]-5-methyl-1H-pyrazol-1-yl]-N-(1,3,3-trimethyl-piperidin-4-yl)-acetamid] | 57
COc1cc(C)c(S(=O)(=O)Cc2noc(C(=O)NC3CCN(c4ccncc4)CC3)n2)c(C)c1 [SC-01, 3-[[(4-Methoxy-2,6-dimethyl-phenyl)sulfonyl]-methyl]-N-(1-pyridin-4-yl-piperidin-4-yl)-[1,2,4]oxadiazol-5-carbonsäure amid] | 99
COc1cc(C)c(S(=O)(=O)Cc2noc(C(=O)N3CC4(CCN(c5ccncc5)CC4)C3)n2)c(C)c1 [SC-02, [3-[[(4-Methoxy-2,6-dimethyl-phenyl)sulfonyl]-methyl]-[1,2,4]oxadiazol-5-yl]-(7-pyridin-4-yl-2,7-diazaspiro[3.5]nonan-2-yl)-methanon] | 100
COc1cc(C)c(S(=O)(=O)Cc2noc(C(=O)N3CCC(Oc4ccncc4)C3)n2)c(C)c1 (stereo not drawn) [SC-03, [3-[[(4-Methoxy-2,6-dimethyl-phenyl)sulfonyl]-methyl]-[1,2,4]oxadiazol-5-yl]-(3-pyridin-4-yloxy-pyrrolidin-1-yl)-methanon] | 98
COc1cc(C)c(S(=O)(=O)Cc2noc(C(=O)N3CCC4(CCN(c5ccncc5)CC4)C3)n2)c(C)c1 [SC-04, [3-[[(4-Methoxy-2,6-dimethyl-phenyl)sulfonyl]-methyl]-[1,2,4]oxadiazol-5-yl]-(8-pyridin-4-yl-3,8-diazaspiro[4.5]decan-3-yl)-methanon] | 100
COc1cc(C)c(S(=O)(=O)Cc2noc(C(=O)N3CCC4(CCN(c5ccncc5)C4)C3)n2)c(C)c1 (stereo not drawn) [SC-05, [3-[[(4-Methoxy-2,6-dimethyl-phenyl)sulfonyl]-methyl]-[1,2,4]oxadiazol-5-yl]-(8-pyridin-4-yl-3,8-diazaspiro[4.4]nonan-3-yl)-methanon] | 100
COc1cc(C)c(S(=O)(=O)Cc2noc(C(=O)NC3CCN(c4ccc(C(F)(F)F)cn4)C3)n2)c(C)c1 (stereo not drawn) [SC-06, 3-[[(4-Methoxy-2,6-dimethyl-phenyl)sulfonyl]-methyl]-N-[1-[5-(trifluormethyl)-pyridin-2-yl]-pyrrolidin-3-yl]-[1,2,4]oxadiazol-5-carbonsäure amid] | 94
COc1cc(C)c(S(=O)(=O)Cc2noc(C(=O)N3CCC(CN4CCN(C)CC4)C3)n2)c(C)c1 (stereo not drawn) [SC-07, [3-[[(4-Methoxy-2,6-dimethyl-phenyl)sulfonyl]-methyl]-[1,2,4]oxadiazol-5-yl]-[3-[(4-methyl-piperazin-1-yl)-methyl]-pyrrolidin-1-yl]-methanon] | 100
COc1cc(C)c(S(=O)(=O)Cc2noc(C(=O)N3CCC(Cc4ccncc4)CC3)n2)c(C)c1 [SC-08, [3-[[(4-Methoxy-2,6-dimethyl-phenyl)sulfonyl]-methyl]-[1,2,4]oxadiazol-5-yl]-[4-(pyridin-4-yl-methyl)-piperidin-1-yl]-methanon] | 99
COc1cc(C)c(S(=O)(=O)Cc2noc(C(=O)N3CCC4(CCC(Oc5ccncc5)CC4)CC3)n2)c(C)c1 [SC-09, [3-[[(4-Methoxy-2,6-dimethyl-phenyl)sulfonyl]-methyl]-[1,2,4]oxadiazol-5-yl]-(9-pyridin-4-yloxy-3-azaspiro[5.5]undecan-3-yl)-methanon] | 99
COc1cc(C)c(S(=O)(=O)Cc2noc(C(=O)N3CCC4(CC3)CCN(c3ccncc3)CC4)n2)c(C)c1 [SC-10, [3-[[(4-Methoxy-2,6-dimethyl-phenyl)sulfonyl]-methyl]-[1,2,4]oxadiazol-5-yl]-(9-pyridin-4-yl-3,9-diazaspiro[5.5]undecan-3-yl)-methanon] | 100
COc1cc(C)c(S(=O)(=O)Cc2noc(CC(=O)N3CCC4(CC3)CCN(c3ccncc3)CC4)n2)c(C)c1 [SC-11, 2-[3-[[(4-Methoxy-2,6-dimethyl-phenyl)sulfonyl]-methyl]-[1,2,4]oxadiazol-5-yl]-1-(9-pyridin-4-yl-3,9-diazaspiro[5.5]undecan-3-yl)-ethanon] | 99
COc1cc(C)c(S(=O)(=O)Cc2noc(C(=O)NC3CCN(c4ccncc4)CC3(C)C)n2)c(C)c1 (stereo not drawn) [SC-12, N-(3,3-Dimethyl-1-pyridin-4-yl-piperidin-4-yl)-3-[[(4-methoxy-2,6-dimethyl-phenyl)sulfonyl]-methyl]-[1,2,4]oxadiazol-5-carbonsäure amid] | 100
COc1cc(C)c(S(=O)(=O)Cc2noc(CC(=O)NC3CCC(N4CCN(C)CC4)CC3(C)C)n2)c(C)c1 (stereo not drawn) [SC-13, N-[2,2-Dimethyl-4-(4-methyl-piperazin-1-yl)-cyclohexyl]-2-[3-[[(4-methoxy-2,6-dimethyl-phenyl)sulfonyl]-methyl]-[1,2,4]oxadiazol-5-yl]-acetamid] | 100
COc1cc(C)c(S(=O)(=O)Cc2noc(CC(=O)NC3CCN(c4ccncc4)CC3(C)C)n2)c(C)c1 (stereo not drawn) [SC-14, N-(3,3-Dimethyl-1-pyridin-4-yl-piperidin-4-yl)-2-[3-[[(4-methoxy-2,6-dimethyl-phenyl)sulfonyl]-methyl]-[1,2,4]oxadiazol-5-yl]-acetamid] | 100
COc1cc(C)c(S(=O)(=O)Cc2noc(C(=O)NC3CCC(N4CCN(C)CC4)CC3(C)C)n2)c(C)c1 (stereo not drawn) [SC-16, N-[2,2-Dimethyl-4-(4-methyl-piperazin-1-yl)-cyclohexyl]-3-[[(4-methoxy-2,6-dimethyl-phenyl)-sulfonyl]-methyl]-[1,2,4]oxadiazol-5-carbonsäure amid] | 99
COc1cc(C)c(S(=O)(=O)Cc2noc(C(=O)NC3CCC(c4ccncc4)CC3)n2)c(C)c1 (stereo not drawn) [SC-18, 3-[[(4-Methoxy-2,6-dimethyl-phenyl)sulfonyl]-methyl]-N-(4-pyridin-4-yl-cyclohexyl)-[1,2,4]oxadiazol-5-carbonsäure amid] | 97
COc1cc(C)c(S(=O)(=O)Cc2noc(C(=O)NC3CCC(Cc4ccncc4)CC3)n2)c(C)c1 (stereo not drawn) [SC-19, 3-[[(4-Methoxy-2,6-dimethyl-phenyl)sulfonyl]-methyl]-N-[4-(pyridin-4-yl-methyl)-cyclohexyl]-[1,2,4]oxadiazol-5-carbonsäure amid] | 99
COc1cc(C)c(S(=O)(=O)Cc2noc(CC(=O)N(C)C3CCN(C4CCC(C)CC4)CC3)n2)c(C)c1 (stereo not drawn) [SC-20, 2-[3-[[(4-Methoxy-2,6-dimethyl-phenyl)sulfonyl]-methyl]-[1,2,4]oxadiazol-5-yl]-N-methyl-N-[1-(4-methyl-cyclohexyl)-piperidin-4-yl]-acetamid] | 100
COc1cc(C)c(S(=O)(=O)Cc2noc(CC(=O)N(C)C3CCN(C4CCOCC4)CC3)n2)c(C)c1 [SC-21, 2-[3-[[(4-Methoxy-2,6-dimethyl-phenyl)sulfonyl]-methyl]-[1,2,4]oxadiazol-5-yl]-N-methyl-N-(1-tetrahydro-pyran-4-yl-piperidin-4-yl)-acetamid] | 100
COc1cc(C)c(S(=O)(=O)Cc2noc(CC(=O)N(C3CC3)C3CCN(c4ccncc4)CC3)n2)c(C)c1 [SC-22, N-Cyclopropyl-2-[3-[[(4-methoxy-2,6-dimethyl-phenyl)sulfonyl]-methyl]-[1,2,4]oxadiazol-5-yl]-N-(1-pyridin-4-yl-piperidin-4-yl)-acetamid] | 100
COc1cc(C)c(S(=O)(=O)Cc2noc(CC(=O)N(C)C3CCN(C(=O)c4ccncc4)CC3)n2)c(C)c1 [SC-27, 2-[3-[[(4-Methoxy-2,6-dimethyl-phenyl)sulfonyl]-methyl]-[1,2,4]oxadiazol-5-yl]-N-methyl-N-[1-(pyridin-4-carbonyl)-piperidin-4-yl]-acetamid] | 98
